Test results taken from US10219516B2, “Molecules having pesticidal utility, and intermediates, compositions, and processes, related thereto” (priority 2015, dated 2019).
Like-named read-outs stand apart in the source and are kept apart here.

Key:
Assay type in all cases: in vivo
[1] = tested on: Yellow Fever Mosquito (Aedes aegypti, AEDSAE); assay: Bioassay on Yellow Fever Mosquito (YFM), 96-well plate larval assay; conditions: for YFM rating: Yellow Fever Mosquito, 96-well plate larval assay; for YFM (Biological Results, rating): Species YFM (Yellow Fever Mosquito)
Method in brief: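 Each well was scored for mortality after 3 days at room temperature under a non-evaporative lid. Test molecules came from DMSO masters (4000 ppm stock) diluted with water/acetone 90:10 and dispensed into six replicate plates, which were then infested with roughly 1-day-old larvae in liver-powder water.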

[2] = tested on: Beet Armyworm (Spodoptera exigua, LAPHEG); assay: Bioassay on Beet Armyworm (BAW), 128-well diet tray assay
Method in brief: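 Percent mortality, averaged across eight replicate wells, was scored after five to seven days at 25° C. under a 14:10 light-dark cycle. Each well's diet carried 50 μg/cm^2 of the dried test molecule and held one to five second instar larvae.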

[3] = tested on: Cabbage Looper (Trichoplusia ni, TRIPNI); assay: Bioassay on Cabbage Looper (CL), 128-well diet tray assay; conditions: Trichoplusia ni
Method in brief: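 Second-instar larvae, one to five per well, placed on artificial diet treated with 50 μg/cm^2 test molecule in 90:10 acetone-water, dried before infestation. Held 5–7 days at 25° C, 14:10 light-dark; percent mortality averaged over eight wells.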

[4] = Beet Armyworm, 128-well diet tray assay, read-out: BAW rating
[5] = Cabbage Looper, 128-well diet tray assay, read-out: CL rating
[6] = Species BAW (Beet Armyworm), read-out: BAW (Biological Results, rating)
[7] = Species CL (Cabbage Looper), read-out: CL (Biological Results, rating)

Compound	YFM rating [1]	pest or weed control at 50 µg/cm2 [2, 4]	pest or weed control at 50 µg/cm2 [3, 5]	YFM (Biological Results, rating) [1]	pest or weed control at 50 µg/cm2 [2, 6]	pest or weed control at 50 µg/cm2 [3, 7]
CN(C(=O)c1cc(NC(=O)[C@H]2[C@H](c3ccc(C(F)F)cc3)C2(Cl)Cl)ccc1Cl)c1ccc(F)cc1 (relative stereo) [F599, 2-Chloro-5-(trans-2,2-dichloro-3-(4-(difluoromethyl)phenyl)cyclopropane-1-carboxamido)-N-(4-fluorophenyl)-N-methylbenzamide]	A (80-100)	50 to 100%	50 to 100%			
O=C(Nc1cncc(NO)c1)c1cc(NC(=O)[C@H]2[C@H](c3cc(Cl)cc(Cl)c3)C2(Cl)Cl)ccc1Cl [F525, 2-Chloro-5-((1R,3R)-2,2-dichloro-3-(3,5-dichlorophenyl)cyclopropane-1-carboxamido)-N-(5-(hydroxyamino)pyridin-3-yl)benzamide]	A (80-100)	50 to 100%	50 to 100%			
Nc1cc(F)c(NC(=O)c2cc(NC(=O)[C@H]3[C@H](c4cc(Cl)c(Cl)c(Cl)c4)C3(Cl)Cl)ccc2Cl)cc1F [F570, trans-N-(4-Amino-2,5-difluorophenyl)-2-chloro-5-((1R,3R)-2,2-dichloro-3-(3,4,5-trichlorophenyl)cyclopropane-1-carboxamido)benzamide]	A (80-100)	50 to 100%	50 to 100%			
O=C1Cc2cc(NC(=O)c3cc(NC(=O)[C@H]4[C@H](c5cc(Cl)cc(Cl)c5)C4(Cl)Cl)ccc3Cl)ccc2N1 (relative stereo) [F472, 2-Chloro-5-(trans)-(2,2-dichloro-3-(3,5-dichlorophenyl)cyclopropane-1-carboxamido)-N-(2-oxoindolin-5-yl)benzamide]	A (80-100)	50 to 100%	50 to 100%			
O=C(Nc1ccc(F)cc1)c1cc(NC(=O)[C@H]2[C@H](c3cc(Cl)cc(Cl)c3)C2(Cl)Cl)ccc1OC(F)(F)F (relative stereo) [F135, trans-5-(2,2-Dichloro-3-(3,5-dichlorophenyl)cyclopropane-1-carboxamido)-N-(4-fluorophenyl)-2-(trifluoromethoxy)benzamide]				A (80-100)	50 to 100%	50 to 100%
Cc1ccc(NC(=O)c2cc(NC(=O)[C@H]3[C@H](c4cc(Cl)cc(Cl)c4)C3(Cl)Cl)ccc2Cl)c([N+](=O)[O-])c1 (relative stereo) [F231, 2-Chloro-5-(trans-2,2-dichloro-3-(3,5-dichlorophenyl)cyclopropane-1-carboxamido)-N-(4-methyl-2-nitrophenyl)benzamide]				A (80-100)	50 to 100%	50 to 100%
Cc1cc(Cl)cc([C@H]2[C@H](C(=O)Nc3ccc(Cl)c(C(=O)Nc4ccc(F)cc4)c3)C2(Cl)Cl)c1 (relative stereo) [F116, trans-2-Chloro-5-(2,2-dichloro-3-(3-chloro-5-methylphenyl)cyclopropane-1-carboxamido)-N-(4-fluorophenyl)benzamide]				A (80-100)	50 to 100%	50 to 100%
N#Cc1cc(F)ccc1NC(=O)c1cccc(NC(=O)[C@H]2[C@H](c3cc(Cl)cc(Cl)c3)C2(Cl)Cl)c1 (relative stereo) [F271, trans-N-(2-Cyano-4-fluorophenyl)-3-(2,2-dichloro-3-(3,5-dichlorophenyl)cyclopropane-1-carboxamido)benzamide]				A (80-100)	50 to 100%	50 to 100%
O=C(Nc1cccc(F)n1)c1cc(NC(=O)[C@H]2[C@H](c3cc(Cl)cc(Cl)c3)C2(Cl)Cl)ccc1Cl (relative stereo) [F240, trans-2-Chloro-5-(2,2-dichloro-3-(3,5-dichlorophenyl)cyclopropane-1-carboxamido)-N-(6-fluoropyridin-2-yl)benzamide]				A (80-100)	50 to 100%	50 to 100%
O=C(Nc1ccc(I)cc1F)c1cc(NC(=O)[C@H]2[C@H](c3cc(Cl)cc(Cl)c3)C2(Cl)Cl)ccc1Cl (relative stereo) [F203, trans-2-Chloro-5-(2,2-dichloro-3-(3,5-dichlorophenyl)cyclopropane-1-carboxamido)-N-(2-fluoro-4-iodophenyl)benzamide]				A (80-100)	50 to 100%	50 to 100%
Cc1cc(N)ccc1NC(=O)c1cc(NC(=O)[C@H]2[C@H](c3ccc(Cl)c(Cl)c3)C2(Cl)Cl)ccc1Cl (relative stereo) [F574, trans-N-(4-Amino-2-methylphenyl)-2-chloro-5-(2,2-dichloro-3-(3,4-dichlorophenyl)cyclopropane-1-carboxamido)benzamide]	A (80-100)	50 to 100%	50 to 100%			
O=C(Nc1ccc(F)cc1)c1cc(NC(=O)[C@H]2[C@H](c3cc(Cl)cc(Br)c3)C2(Cl)Cl)ccc1Cl (relative stereo) [PF37, 5-(trans-3-(3-Bromo-5-chlorophenyl)-2,2-dichlorocyclopropane-1-carboxamido)-2-chloro-N-(4-fluorophenyl)benzamide]	B (More than 0-Less than 80)	50 to 100%	50 to 100%			
O=C(Nc1ccc(F)cc1F)c1cc(NC(=O)[C@H]2[C@H](c3ccc(C(F)F)c(F)c3)C2(Cl)Cl)ccc1Cl (relative stereo) [F563, 2-Chloro-5-(trans-2,2-dichloro-3-(4-(difluoromethyl)-3-fluorophenyl)cyclopropane-1-carboxamido)-N-(2,4-difluorophenyl)benzamide]	A (80-100)	50 to 100%	50 to 100%			
O=C(Nc1ccc(-n2ccnc2)cc1)c1cc(NC(=O)[C@H]2[C@H](c3cc(Cl)cc(Cl)c3)C2(Cl)Cl)ccc1Cl (relative stereo) [PF56, trans-N-(4-(1H-Imidazol-1-yl)phenyl)-2-chloro-5-(2,2-dichloro-3-(3,5-dichlorophenyl)cyclopropane-1-carboxamido)benzamide]	A (80-100)	50 to 100%	50 to 100%			
CN(C(=O)c1cc(NC(=O)[C@@H]2[C@@H](c3cc(Cl)cc(Cl)c3)C2(Cl)Cl)ccc1Cl)c1ccc(F)cc1 [F170, 2-Chloro-5-((1S,3S)-2,2-dichloro-3-(3,5-dichlorophenyl)cyclopropane-1-carboxamido)-N-(4-fluorophenyl)-N-methylbenzamide]				A (80-100)	50 to 100%	50 to 100%
Nc1cc(NC(=O)c2cc(NC(=O)[C@H]3[C@H](c4cc(Cl)cc(Cl)c4)C3(Cl)Cl)ccc2Cl)ccc1F (relative stereo) [F238, trans-N-(3-Amino-4-fluorophenyl)-2-chloro-5-(2,2-dichloro-3-(3,5-dichlorophenyl)cyclopropane-1-carboxamido)benzamide]				A (80-100)	50 to 100%	50 to 100%
O=C(Nc1ccc(F)cc1F)c1cc(NC(=O)[C@H]2[C@H](c3ccc(Cl)c(Br)c3)C2(Cl)Cl)ccc1Cl (relative stereo) [F331, 5-(trans-3-(3-Bromo-4-chlorophenyl)-2,2-dichlorocyclopropane-1-carboxamido)-2-chloro-N-(2,4-difluorophenyl)benzamide]				A (80-100)	50 to 100%	50 to 100%
Cn1ccc2c(NC(=O)c3cc(NC(=O)[C@H]4[C@H](c5cc(Cl)cc(Cl)c5)C4(Cl)Cl)ccc3Cl)cccc21 (relative stereo) [F530, 2-Chloro-5-(trans)-(2,2-dichloro-3-(3,5-dichlorophenyl)cyclopropane-1-carboxamido)-N-(1-methyl-1H-indol-4-yl)benzamide]	A (80-100)	50 to 100%	50 to 100%			
C=C(c1ccc(NC(=O)c2cc(NC(=O)[C@H]3[C@H](c4cc(Cl)cc(Cl)c4)C3(Cl)Cl)ccc2Cl)c(C)c1)C(F)(F)F (relative stereo) [F258, 2-Chloro-5-(trans)-(2,2-dichloro-3-(3,5-dichlorophenyl)cyclopropane-1-carboxamido)-N-(2-methyl-4-(3,3,3-trifluoroprop-1-en-2-yl)phenyl)benzamide]				B (More than 0-Less than 80)	50 to 100%	50 to 100%
Nc1cc(NC(=O)c2cc(NC(=O)[C@H]3[C@H](c4cc(Cl)c(Cl)c(Cl)c4)C3(Cl)Cl)ccc2Cl)c(F)cc1F [F402, N-(5-Amino-2,4-difluorophenyl)-2-chloro-5-((1R,3R)-2,2-dichloro-3-(3,4,5-trichlorophenyl)cyclopropane-1-carboxamido)benzamide]	A (80-100)	50 to 100%	50 to 100%			
C=Cc1ccc([C@H]2[C@H](C(=O)Nc3ccc(Cl)c(C(=O)Nc4ccc(F)c(N)c4F)c3)C2(Cl)Cl)cc1Cl (relative stereo) [F355, N-(3-Amino-2,4-difluorophenyl)-2-chloro-5-(trans-2,2-dichloro-3-(3-chloro-4-vinylphenyl)cyclopropane-1-carboxamido)benzamide]				A (80-100)	50 to 100%	50 to 100%
